Test results reported in the supplement of paper PMC10307832.

Tests used:
Assay in all cases: relative viability (nuclei count vs DMSO), 5 days (fraction); higher = more cells survive
[1] = compound: CCCS(=O)(=O)Nc1ccc(F)c(C(=O)c2c[nH]c3ncc(-c4ccc(Cl)cc4)cc23)c1F [Vemurafenib] + C[C@@H](Oc1cc(-c2cnn(C3CCNCC3)c2)cnc1N)c1c(Cl)ccc(F)c1Cl [Crizotinib] (partner 1 µM)
Method in brief: (§1)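 Relative viability divides the nuclei count in treated wells by that in vehicle wells. Lung cancer cell lines were seeded in 1536-well plates, dosed by pin tool the next day, and fixed and stained after 5 days in one step with final 0.05% Triton X-100, 1% formaldehyde and 1 ug/ml Hoechst. Dosing was a single drug or a fixed anchor-drug dose plus five library-drug doses (not always all listed) in √10 steps, and values are medians of duplicate plates imaged at 4×.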

[2] = compound: Cc1nc(NC(=O)N2CCC[C@H]2C(N)=O)sc1-c1ccnc(C(C)(C)C(F)(F)F)c1 [Alpelisib] + Cc1cc(Nc2cc(N3CCN(C)CC3)nc(Sc3ccc(NC(=O)C4CC4)cc3)n2)n[nH]1 [Tozasertib] (partner 0.1 µM)
Method in brief: as §1

[3] = compound: CCCS(=O)(=O)Nc1ccc(F)c(C(=O)c2c[nH]c3ncc(-c4ccc(Cl)cc4)cc23)c1F [Vemurafenib] + Nc1ncn([C@H]2C[C@H](O)[C@@H](CO)O2)c(=O)n1 [Decitabine] (partner 2 µM)
Method in brief: as §1

[4] = compound: CCCS(=O)(=O)Nc1ccc(F)c(C(=O)c2c[nH]c3ncc(-c4ccc(Cl)cc4)cc23)c1F [Vemurafenib] + COc1cccc2cc(-c3nc([C@H]4CC[C@H](C(=O)O)CC4)n4ncnc(N)c34)[nH]c12 [OSI-027] (partner 0.5 µM)
Method in brief: as §1

Row | Cell Line | relative viability ([1]; first compound 0.03162 µM) | relative viability ([1]; first compound 0.1 µM) | relative viability ([1]; first compound 0.3162 µM) | relative viability ([1]; first compound 1 µM) | relative viability ([2]; first compound 0.04 µM) | relative viability ([2]; first compound 0.1265 µM) | relative viability ([2]; first compound 0.4 µM) | relative viability ([2]; first compound 1.265 µM) | relative viability ([2]; first compound 4 µM) | relative viability ([3]; first compound 0.03162 µM) | relative viability ([3]; first compound 0.1 µM) | relative viability ([3]; first compound 0.3162 µM) | relative viability ([3]; first compound 1 µM) | relative viability ([4]; first compound 0.03162 µM) | relative viability ([4]; first compound 0.1 µM) | relative viability ([4]; first compound 0.3162 µM) | relative viability ([4]; first compound 1 µM)
1 | NCI-H1975 | 0.955 | 0.926 | 0.837 | 1.02 | 0.726 | 0.655 | 0.755 | 0.542 | 0.29 | 0.419 | 0.418 | 0.345 | 0.32 | 0.647 | 0.631 | 0.4 | 0.564
2 | NCI-H1993 | 0.906 | – | 0.935 | 0.818 | 0.621 | 0.505 | 0.542 | 0.511 | 0.515 | 0.513 | – | 0.651 | 0.713 | 0.523 | – | 0.607 | 0.494
3 | NCI-H2009 | 1.02 | 0.924 | 0.754 | 0.962 | 0.729 | 0.708 | 0.768 | 0.696 | 0.752 | 0.394 | 0.341 | 0.341 | 0.438 | 0.606 | 0.483 | 0.389 | 0.325
4 | NCI-H2023 | 0.534 | 0.452 | 0.704 | 0.675 | 0.36 | 0.35 | 0.348 | 0.215 | 0.166 | 0.228 | 0.224 | 0.257 | 0.246 | 0.316 | 0.293 | 0.408 | 0.316
5 | NCI-H2085 | 0.875 | 0.841 | 0.822 | 0.783 | 0.825 | 0.718 | 0.907 | 0.762 | 0.746 | 0.495 | 0.529 | 0.536 | 0.597 | 0.645 | 0.37 | 0.663 | 0.637
6 | NCI-H2087 | 0.844 | 1 | – | 0.79 | 0.256 | 0.294 | 0.305 | 0.218 | 0.167 | 0.198 | 0.273 | 0.346 | 0.336 | 0.481 | 0.565 | – | 0.514
7 | NCI-H2126 | 1.02 | 1.04 | 1.02 | 1.04 | 0.879 | 0.826 | 0.809 | 0.627 | 0.584 | 0.559 | 0.542 | 0.599 | 0.552 | 0.606 | 0.591 | 0.856 | 0.651
8 | NCI-H2170 | 1.09 | 0.752 | 1.15 | 1.14 | 0.637 | 0.727 | 0.771 | 0.625 | 0.298 | 0.435 | – | 0.441 | 0.455 | 0.67 | 0.194 | 0.686 | 0.7
9 | NCI-H2347 | 0.655 | 0.657 | 0.397 | 0.69 | 0.649 | 0.582 | 0.682 | 0.39 | 0.361 | 0.588 | 0.538 | 0.562 | 0.613 | 0.436 | 0.37 | 0.577 | 0.367
10 | NCI-H2405 | 0.865 | 0.827 | – | 0.766 | 0.725 | 0.68 | 0.825 | 0.682 | 0.625 | 0.668 | 0.678 | – | 0.736 | 0.611 | 0.637 | – | 0.621
11 | NCI-H3122 | 0.266 | 0.263 | 0.383 | 0.211 | 0.334 | 0.387 | 0.35 | 0.255 | 0.263 | 0.429 | 0.485 | 0.481 | 0.504 | 0.932 | 0.893 | 1.04 | 0.899
12 | PC-3 [JPC-3] | 0.91 | – | 1.01 | 1.01 | 0.898 | 0.873 | 0.968 | 0.84 | 0.806 | – | – | 0.81 | 0.888 | 0.698 | – | 0.724 | 0.731
13 | PC-14 | 0.749 | – | 0.849 | 0.852 | 0.588 | 0.612 | 0.655 | 0.44 | 0.543 | 0.223 | – | 0.181 | 0.237 | 0.822 | – | 0.741 | 0.767
14 | RERF-LC-KJ | 0.838 | 0.834 | 0.832 | 0.922 | 0.466 | 0.455 | 0.572 | 0.363 | 0.349 | 0.639 | 0.678 | 0.632 | 0.716 | 0.651 | 0.454 | 0.533 | 0.632
15 | SK-LU-1 | 0.855 | 0.905 | 0.664 | 0.72 | 0.347 | 0.289 | 0.372 | 0.256 | 0.216 | 0.638 | 0.588 | 0.504 | 0.56 | 0.315 | 0.342 | 0.245 | 0.269
16 | SK-MES-1 | 0.934 | 0.978 | 0.903 | 0.901 | 0.937 | 0.901 | 1.03 | 0.745 | 0.89 | 0.384 | 0.334 | 0.38 | 0.386 | 0.56 | 0.456 | 0.548 | 0.444
17 | SW 1573 | 0.628 | 0.941 | 1.01 | 0.722 | 0.172 | 0.149 | 0.175 | 0.151 | 0.166 | 0.386 | 0.442 | 0.484 | 0.452 | 0.582 | 0.591 | 0.564 | 0.464
